Values of other authors, collected in patent publication US20050271657A1, “Intermittent treatment regime for organ failure” (Australian Stem Cell Centre Ltd., priority 2004, published 2005).

Experiments:
[1] = renal transplant patients
[2] = system: A II production from angiotensin I (A I)

SMILES: CCOC(=O)[C@H](CCc1ccccc1)N[C@@H](C)C(=O)N1CCC[C@H]1C(=O)O [Enalapril, enalapril]
- anemia [1]: reversible anemia
- blockage of A II production from angiotensin I at specific glomerular sites [2]: blockage
